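Tested at 5 concentrations; 48 h exposure; 96-well plates; endpoints linearly interpolated, else capped at highest concentration. GI50 = concentration required for 50% inhibition of growth.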 Activity calls are given as the source filed them. Rule as the data show it: active = GI50 up to about 1.1 µM and inactive = higher.
Columns and labels:
Experiment in all cases: NCI anticancer screen, dose series, 48 h
KM12 = tested on: KM12
HCT-116 = tested on: HCT-116
COLO 205 = tested on: COLO 205
SF-268 = tested on: SF-268
TK-10 = tested on: TK-10
K562 = tested on: K562
EKVX = tested on: EKVX
MDA-MB-231 = tested on: MDA-MB-231
T47D = tested on: T47D
MCF7 = tested on: MCF7
CCRF-CEM = tested on: CCRF-CEM
RXF 393 = tested on: RXF 393
SK-OV-3 = tested on: SK-OV-3
RPMI-8226 = tested on: RPMI-8226
NCI-H460 = tested on: NCI-H460
MDA-N = tested on: MDA-N
ACHN = tested on: ACHN
HT-29 = tested on: HT-29
A549 = tested on: A549
SF-295 = tested on: SF-295
HL-60 = tested on: HL-60
LOX IMVI = tested on: LOX IMVI
SNB-19 = tested on: SNB-19
A498 = tested on: A498
SN12C = tested on: SN12C
U-251 = tested on: U-251
IGROV-1 = tested on: IGROV-1
UO-31 = tested on: UO-31
UACC-257 = tested on: UACC-257
HOP-62 = tested on: HOP-62
CAKI-1 = tested on: CAKI-1
DU-145 = tested on: DU-145
SK-MEL-28 = tested on: SK-MEL-28
SW-620 = tested on: SW-620
SNB-75 = tested on: SNB-75
OVCAR-8 = tested on: OVCAR-8
SR = tested on: SR
SK-MEL-2 = tested on: SK-MEL-2
HOP-92 = tested on: HOP-92
NCI/ADR-RES = tested on: NCI/ADR-RES
MDA-MB-435 = tested on: MDA-MB-435
MOLT-4 = tested on: MOLT-4
Hs-578T = tested on: Hs-578T
M14 = tested on: M14
HCC 2998 = tested on: HCC 2998
HCT-15 = tested on: HCT-15
SK-MEL-5 = tested on: SK-MEL-5
BT-549 = tested on: BT-549
OVCAR-3 = tested on: OVCAR-3
NCI-H23 = tested on: NCI-H23
NCI-H522 = tested on: NCI-H522
OVCAR-5 = tested on: OVCAR-5
NCI-H226 = tested on: NCI-H226
SF-539 = tested on: SF-539
PC-3 = tested on: PC-3
UACC-62 = tested on: UACC-62
786-0 = tested on: 786-0
OVCAR-4 = tested on: OVCAR-4
Malme-3M = tested on: Malme-3M

Measured: GI50

COc1ccc(C(OCC2OC(n3ccc(Oc4c(F)c(F)c(F)c(F)c4F)nc3=O)CC2OP(OCCC#N)N(C(C)C)C(C)C)(c2ccccc2)c2ccc(OC)cc2)cc1 (stereo not drawn)
> 100 µM: HCT-15
inactive: KM12 > 100 µM | HCT-116 > 100 µM | COLO 205 > 100 µM | SF-268 > 100 µM | TK-10 > 100 µM | K562 > 100 µM | EKVX > 10 µM | MDA-MB-231 > 100 µM | T47D > 100 µM | MCF7 > 100 µM | CCRF-CEM 77.3 µM | RXF 393 > 100 µM | SK-OV-3 > 100 µM | RPMI-8226 > 100 µM | NCI-H460 > 100 µM | MDA-N > 100 µM | ACHN > 100 µM | HT-29 > 100 µM | A549 > 100 µM | SF-295 > 100 µM | HL-60 > 100 µM | LOX IMVI > 100 µM | SNB-19 > 100 µM | A498 > 100 µM | SN12C > 100 µM | U-251 > 100 µM | IGROV-1 > 100 µM | UO-31 > 100 µM | UACC-257 > 100 µM | HOP-62 > 100 µM | CAKI-1 > 100 µM | DU-145 > 100 µM | SK-MEL-28 > 100 µM | SW-620 > 100 µM | SNB-75 > 100 µM | OVCAR-8 > 100 µM | SR > 100 µM | SK-MEL-2 > 100 µM | HOP-92 > 100 µM | NCI/ADR-RES > 100 µM | MDA-MB-435 > 100 µM | MOLT-4 > 100 µM | Hs-578T > 100 µM | M14 > 100 µM | HCC 2998 > 100 µM | SK-MEL-5 68.2 µM | BT-549 > 100 µM | OVCAR-3 > 100 µM | NCI-H23 42.8 µM | NCI-H522 > 100 µM | OVCAR-5 > 100 µM | NCI-H226 > 100 µM | SF-539 > 100 µM | PC-3 > 100 µM | UACC-62 > 100 µM | 786-0 > 100 µM

NNC(=O)CSc1nc2ccccc2c(=O)n1N
inactive: KM12 > 100 µM | HCT-116 31.6 µM | COLO 205 > 100 µM | SF-268 39.9 µM | TK-10 16.3 µM | K562 > 100 µM | OVCAR-4 > 100 µM | EKVX 53.8 µM | MDA-MB-231 17.3 µM | T47D > 100 µM | MCF7 91.8 µM | CCRF-CEM > 100 µM | RXF 393 31.7 µM | RPMI-8226 > 100 µM | NCI-H460 57.1 µM | MDA-N > 100 µM | ACHN 26.4 µM | HT-29 22.2 µM | A549 > 100 µM | SF-295 31.4 µM | LOX IMVI 43.4 µM | SNB-19 14.9 µM | A498 > 100 µM | SN12C 37.8 µM | U-251 19.1 µM | IGROV-1 > 100 µM | UO-31 > 100 µM | UACC-257 > 100 µM | CAKI-1 32.8 µM | DU-145 > 100 µM | SK-MEL-28 > 100 µM | SW-620 > 100 µM | SNB-75 13.5 µM | OVCAR-8 31.9 µM | SR > 100 µM | SK-MEL-2 17.6 µM | HOP-92 22.5 µM | NCI/ADR-RES > 100 µM | MDA-MB-435 > 100 µM | MOLT-4 > 100 µM | Hs-578T 29.7 µM | M14 > 100 µM | HCC 2998 > 100 µM | SK-MEL-5 > 100 µM | BT-549 42.1 µM | OVCAR-3 > 100 µM | NCI-H23 29.8 µM | NCI-H522 58.7 µM | OVCAR-5 > 100 µM | NCI-H226 > 100 µM | SF-539 31 µM | PC-3 > 100 µM | Malme-3M 46.7 µM | UACC-62 27.6 µM | 786-0 19 µM
> 100 µM: HCT-15

Source: ChEMBL document CHEMBL1201862, “PubChem BioAssay data set” (2004)
